Assay results from patent publication US20110136899A1, “COMBINATION OF DRONEDARONE WITH AT LEAST ONE DIURETIC, AND THERAPEUTIC USE THEREOF” (SANOFI-AVENTIS, priority 2008, published 2011).
Counter-ions that a name gives are not always drawn.

Assays:
[1] = prospective, multinational, multicentre, double-blind clinical study versus placebo: prevention of cardiovascular hospitalizations or of mortality; type: in vivo, patients; design: reduction in mortality from any cause: concentration or dose not given beside the values
Description: The patients had to have a history of atrial fibrillation or flutter and/or could be in normal sinus rhythm or in atrial fibrillation or flutter at inclusion.
The patient recruitment was carried out by taking into account the following inclusion criteria:
Inclusion Criteria: • 1) One of the following risk factors had to be present: • age equal to or above 70, or even above 75, possibly combined with at least one of the risk factors below: • hypertension (taking antihypertensives of at least two different classes), • diabetes, • history of cerebral stroke (transient ischemic event or completed cerebral stroke) or of systemic embolism, • left atrial diameter greater than or equal to 50 mm measured by echocardiography, • left ventricular ejection fraction less than 40%, measured by two-dimensional echography; • 2) availability of an electrocardiogram carried out during the past 6 months in order to document the presence or the history of atrial fibrillation or flutter; • 3) availability of an electrocardiogram carried out during the past 6 months in order to document the presence or absence of normal sinus rhythm.
Treatment was initiated using tablets containing either the placebo or an amount of dronedarone hydrochloride corresponding to 400 mg of dronedarone at a rate of one tablet in the morning during or shortly after breakfast and one tablet in the evening during or shortly after dinner.
The anticipated duration of the treatment was variable according to the time at which each patient was included in the study, and could range from a minimum of 12 months for the last patient included up to a maximum corresponding to the entire duration of the study (12 months+duration of inclusion), i.e. approximately 30 months for the first patients included.
The results obtained in this trial were analysed by the Kaplan Meier method for the figures, and the relative risk (RR) was estimated using Cox's proportional-effect regression model.
The relative risk (RR) is the ratio of the rates of occurrence of a hospitalization or of a death among the patients on dronedarone, relative to the patients on placebo.
The percentage reduction x of a given event (hospitalization, death, cardiovascular death, etc.) is calculated in the following way: […]

[2] = regulation of the blood potassium level (regular blood samples taken throughout the clinical study); type: in vivo, patients; settings: after the 24th month, taking into account the starting value; compared to the placebo; p<0.0001
Source text: The potassium concentration-modulating effect is clearly documented in the study by virtue of the results of analyses of regular blood samples taken throughout the duration of the study in the context of the monitoring of vital parameters.
The variations in potassium (in mmol/l) between the first and the last administration of the medicament of the study are included in FIG. 8, in which B signifies basal level, D signifies day and M signifies month.

[3] = versus placebo, x=1−relative risk

In the case of CCCCc1oc2ccc(NS(C)(=O)=O)cc2c1C(=O)c1ccc(OCCCN(CCCC)CCCC)cc1 [dronedarone hydrochloride], the “events (cardiovascular hospitalizations and mortality, principal judgment criterion)” value ([1]; 2301 patients in treated group, 400 mg dronedarone twice daily, placebo group 917 events) is reported as 734, the sudden deaths ([1]; 2301 patients in treated group, placebo group 35 sudden deaths) is reported as 14 and the cardiovascular deaths ([1]; 2301 patients in treated group, placebo group 94 cardiovascular deaths) is reported as 65. For the same compound, the “deaths (mortality from any cause)” value ([1]; 2301 patients in treated group, placebo group 139 deaths) was 116, the “events (cardiovascular hospitalizations)” value ([1]; 2301 patients in treated group, placebo group 859 events) was 675 and the “events (cardiovascular hospitalizations and sudden death)” value ([1]; 2301 patients in treated group, placebo group 873 events) was 684. The “events (cardiovascular hospitalizations and cardiovascular mortality)” value ([1]; 2301 patients in treated group, placebo group 892 events) was 701, the “relative risk (sudden death)” value ([1]; versus placebo, Cox model, p=0.0031) was 0.405 and the “relative risk (cardiovascular mortality)” value ([1]; versus placebo, Cox model, p=0.0252) was 0.698. The “relative risk (mortality from any cause)” value ([1]; versus placebo, Cox model, p=0.1758) was 0.844, the “relative risk (cardiovascular hospitalizations and deaths)” value ([1]; versus placebo, Cox model, p=2×10^−8) was 0.758 and the “relative risk (cardiovascular hospitalizations)” value ([1]; versus placebo, Cox model, p=9×10^−9) was 0.745. The “relative risk (cardiovascular hospitalizations and cardiovascular deaths)” value ([1]; versus placebo, Cox model, p=45×10^−10) was 0.745, the “relative risk (cardiovascular hospitalizations and sudden deaths)” value ([1]; versus placebo, Cox model, p=48×10^−10) was 0.743 and the “reduction in cardiovascular hospitalizations” value [1, 3] was 25.5%. The “reduction in cardiovascular hospitalizations and cardiovascular deaths” value [1, 3] was 25.5%, the “reduction in cardiovascular hospitalizations and deaths” value [1, 3] was 24.2% and the “reduction in cardiovascular hospitalizations and sudden deaths” value [1, 3] was 25.5%. For the same compound, the “reduction in cardiovascular mortality” value [1, 3] was 30.2%, the “reduction in mortality from any cause” value [1, 3] was 15.6% and the “reduction in sudden death” value [1, 3] was 59.5%.

In the case of CCCCc1oc2ccc(NS(C)(=O)=O)cc2c1C(=O)c1ccc(OCCCN(CCCC)CCCC)cc1 [dronedarone, 2-n-Butyl-3-[4-(3-di-n-butylaminopropoxy)benzoyl]-5-methylsulphonamidobenzofuran], the “reduction in the risk of sudden death” value ([1]; hypertensive patients) is reported as “approximately 62%”, the “reduction in the risk of sudden death” value ([1]; patients not taking diuretics, compared with the placebo) is reported as “approximately 34%” and the “reduction in the risk of sudden death” value ([1]; patients on diuretics, compared with the placebo) is reported as “approximately 70.4%”. For the same compound, the “reduction in the risk of sudden death” value ([1]; patients who were not hypertensive) was “approximately 45.5%” and the “change in blood potassium level (analysis of covariance)” value [2] was “significant different in favour of dronedarone”.
